Reference: a compilation of properties of binary mixtures (doi:10.1016/j.molliq.2016.02.018)

Experiment: xn = mol fraction of the nth substance listed
Details: 101 kPa

CC(=O)[O-].CCCC[n+]1ccn(C)c1 + CCCC[n+]1ccn(C)c1.O=S(=O)([N-]S(=O)(=O)C(F)(F)F)C(F)(F)F
Details | electrical conductivity, 283.15 K [S/m] | electrical conductivity, 298.15 K [S/m] | electrical conductivity, 313.15 K [S/m] | electrical conductivity, 314.3 K [S/m] | electrical conductivity, 333.15 K [S/m] | viscosity, 283.15 K [mPa·s] | viscosity, 298.15 K [mPa·s] | viscosity, 313.15 K [mPa·s] | viscosity, 314.3 K [mPa·s] | viscosity, 333.15 K [mPa·s]
x2 = 0 | – | 0.0522 | – | 0.146 | 0.369 | – | 441 | – | 132 | 54.7
x2 = 0.1057 | – | 0.0683 | – | – | – | – | 343 | – | – | –
x2 = 0.2396 | 0.0292 | 0.0856 | 0.196 | – | 0.46 | 817 | 255 | 102 | – | 40.3
x2 = 0.321 | – | – | – | 0.237 | – | – | – | – | 70 | –
x2 = 0.3662 | – | 0.109 | – | – | 0.514 | – | 192 | – | – | 34.3
x2 = 0.5245 | 0.0623 | 0.153 | 0.309 | 0.33 | 0.639 | 357 | 134 | 62 | – | 27.9
x2 = 0.6541 | 0.0888 | 0.203 | – | – | 0.755 | 248 | 101 | – | – | 23.5
x2 = 0.8097 | 0.133 | – | – | – | 0.932 | 165 | – | – | – | 19.4

CCCC[n+]1ccn(C)c1.O=S(=O)([N-]S(=O)(=O)C(F)(F)F)C(F)(F)F + CC(=O)[O-].CCCC[n+]1ccn(C)c1
x1 = 1
Details | electrical conductivity [S/m] | viscosity [mPa·s]
283.15 K | 0.207 | 106
298.15 K | 0.404 | 51
333.15 K | 1.18 | 15.5
